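Results reflect a 48-hour exposure of cells in 96-well plates to compound at five concentrations. At the GI50, growth is halved. TGI marks complete inhibition of growth.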
Key:
Test in all cases: NCI tumour cell line growth inhibition, 48 h
786-0 renal = test system: 786-0 renal
ACHN renal = test system: ACHN renal
COLO 205 colon = test system: COLO 205 colon
EKVX NSCLC = test system: EKVX NSCLC
IGROV1 ovarian = test system: IGROV1 ovarian
MCF7 breast = test system: MCF7 breast
MDA-N = test system: MDA-N
NCI/ADR-RES ovarian = test system: NCI/ADR-RES ovarian
SF-268 CNS = test system: SF-268 CNS
UACC-257 melanoma = test system: UACC-257 melanoma

Row | Compound | TGI (786-0 renal) | TGI (ACHN renal) | TGI (COLO 205 colon) | TGI (EKVX NSCLC) | TGI (IGROV1 ovarian) | TGI (MCF7 breast) | TGI (MDA-N) | TGI (NCI/ADR-RES ovarian) | TGI (SF-268 CNS) | TGI (UACC-257 melanoma) | GI50 (COLO 205 colon) | GI50 (EKVX NSCLC) | GI50 (IGROV1 ovarian) | GI50 (MCF7 breast) | GI50 (SF-268 CNS) | GI50 (UACC-257 melanoma)
1 | CC(NC1=NCCO1)c1cccc([N+](=O)[O-])c1 (stereo not drawn) | > 100 µM | > 100 µM | > 100 µM | > 100 µM | > 100 µM | > 100 µM | > 100 µM | > 100 µM | > 100 µM | > 100 µM |  |  |  |  |  | 
2 | O=C1CCC2(CC1CCSc1ccccc1)OCCO2 (stereo not drawn) | > 100 µM | > 100 µM | > 100 µM | > 100 µM | > 100 µM | > 100 µM | > 100 µM | > 100 µM | > 100 µM | > 100 µM |  |  |  |  |  | 
3 | O=C1OC2(C(F)(F)F)Oc3ccccc3CN2C12CCCCC2 (stereo not drawn) | > 100 µM | 38.1 µM | 34.7 µM | > 100 µM | > 100 µM | > 100 µM | > 100 µM | > 100 µM | > 100 µM | 71.4 µM |  |  |  |  |  | 
4 | O=C(NC1(C(=O)NNc2nnc(-c3ccccc3)c(-c3ccccc3)n2)C(c2ccccc2)C(c2ccccc2)=NN1c1ccccc1)c1ccccc1 (stereo not drawn) | > 100 µM | > 100 µM | > 100 µM | > 100 µM |  |  |  | > 100 µM | > 100 µM | > 100 µM |  |  |  |  |  | 
5 | S=c1nc2[nH]c3ccc(Br)cc3c2n[nH]1 | > 100 µM |  | > 100 µM | > 100 µM | > 100 µM | 44.4 µM | 30.7 µM | > 100 µM | > 100 µM | > 100 µM |  |  |  |  |  | 
6 | CSc1nc(NC2OCC(O)C(O)C2O)c(N)c(=O)n1C (stereo not drawn) |  |  | > 100 µM | > 100 µM | > 100 µM | > 100 µM |  | > 100 µM | > 100 µM | > 100 µM |  |  |  |  |  | 
7 | CCOP(=O)(OCC)/C(=C\N1C(=O)CC(=O)NC1=S)C(=O)OC | > 100 µM | > 100 µM | > 100 µM | > 100 µM | > 100 µM | > 100 µM | > 100 µM | > 100 µM | > 100 µM | > 100 µM |  |  |  |  |  | 
8 | NC(c1ccccc1)(C(F)(F)F)P1(=O)OC(=O)c2ccccc2O1 (stereo not drawn) | > 100 µM | > 100 µM | > 100 µM | > 100 µM | > 100 µM | > 100 µM | > 100 µM | > 100 µM | > 100 µM | > 100 µM |  |  |  |  |  | 
9 | COC(=O)c1nc(-c2ccc3c(n2)C(=O)C(N)=C(OC)C3=O)c(N)c(-c2ccc(OC)c(OC)c2O)c1C |  |  | 3.61 µM | 7.95 µM | 4.77 µM | 1.66 µM |  | 3.09 µM | 5.25 µM | 2.09 µM |  |  |  |  |  | 
10 | O=C(NNc1cn[nH]c(=O)c1Cl)/C(=C/c1ccc2c(c1)OCO2)NC(=O)c1ccccc1 | > 100 µM | > 100 µM | > 100 µM | > 100 µM | > 100 µM | > 100 µM | > 100 µM | > 100 µM |  | > 100 µM |  |  |  |  |  | 
11 | CCOC(=O)c1c2c(n3ccc(NC(=O)OC(C)(C)C)cc13)C(=O)c1ncccc1C2=O |  |  | 1.56 µM | 2.03 µM | 2.28 µM | 0.202 µM |  |  | 1.91 µM | 0.919 µM | 0.352 µM | 0.168 µM | 0.152 µM | 0.0174 µM | 0.0713 µM | 0.265 µM
12 | C=C1C(=O)O[C@H]2C/C(C)=C/CC/C(C)=C/CC[C@@](C)(O)[C@@H](I)C[C@@H]12 | 10.6 µM | 21.5 µM | 24.9 µM | 20.8 µM | 10.2 µM | 25.1 µM | 13.3 µM | 24.7 µM | 31.9 µM | 25.5 µM |  |  |  |  |  | 
13 | Cc1nccn1S(=O)(=O)c1ccc(Br)cc1Br | > 100 µM | > 100 µM | 33.4 µM | 96.8 µM | > 100 µM | > 100 µM | 50.1 µM | > 100 µM | > 100 µM | > 100 µM |  |  |  |  |  | 
14 | Cc1ccc(-n2c(O)c3c(N)n[nH]c3c(C#N)c2=O)cc1 | > 100 µM |  | > 100 µM | > 100 µM | > 100 µM | > 100 µM | > 100 µM | > 100 µM | > 100 µM | > 100 µM |  |  |  |  |  | 
15 | CCOC(=O)c1c2c(n(-c3ccc(OC)cc3)c1C)C(=O)C(=O)c1ccccc1-2 | 3.5 µM | 2.36 µM | 5.31 µM | 4.09 µM | 12.7 µM | 6.24 µM |  | 2.01 µM | 3.76 µM | 1.11 µM |  |  |  |  |  | 
16 | CN1C/C(=C\c2ccc(Cl)cc2)C(=O)/C(=C/c2ccc(Cl)cc2)C1 | 1.26 µM | > 25.3 µM | 5.62 µM | > 90.6 µM | > 100 µM |  | 8.86 µM | > 22.5 µM | > 100 µM | 2.44 µM |  |  |  |  |  | 
17 | c1cc(C[S+]2CCCC2)ccc1C[S+]1CCCC1 | > 100 µM | > 100 µM | > 100 µM | > 100 µM | > 100 µM | > 100 µM | > 100 µM | > 100 µM | > 100 µM | > 100 µM |  |  |  |  |  | 
18 | Cc1cn(CC2=NCCCN2)c(=O)[nH]c1=O | > 100 µM | > 100 µM | > 100 µM | > 100 µM | > 100 µM | > 100 µM | > 100 µM | > 100 µM | > 100 µM | > 100 µM |  |  |  |  |  | 
19 | COC(=O)c1ccc(CCc2cc(O)ccc2O)cc1 | 18.4 µM | 37.9 µM | 54.5 µM | 32.4 µM | 23.8 µM | > 62.2 µM | 20.5 µM | > 90.1 µM | > 36.6 µM | 32.8 µM |  |  |  |  |  | 
20 | O=C(c1ccccc1)c1c(C(F)(F)F)n([O-])c2cc(Cl)c(Cl)cc2[n+]1=O | 0.959 µM | 2.03 µM | 18.8 µM | 6.96 µM | 0.984 µM | 1.24 µM | 4.17 µM | 6.36 µM | 1.41 µM | 1.97 µM |  |  |  |  |  | 
21 | Nc1ccc(-c2nc3cc(F)ccc3s2)cc1I | 32 µM | 24.6 µM | > 100 µM | 43.9 µM | 22.3 µM | 3.91 µM | > 100 µM | 54.3 µM | 35.2 µM | > 100 µM |  |  |  |  |  | 

From PubChem BioAssay (NCI)
